What follows are molecules tested against Glutamate receptor ionotropic, NMDA 2B (Rattus norvegicus, UniProt Q00960) (assay: Displacement of [3H]ifenprodil from Wistar rat GluN2B receptor after 2 hrs by liquid scintillation spectrometry).
Chain of Glutamate receptor ionotropic, NMDA 2B (Q00960 whole entry): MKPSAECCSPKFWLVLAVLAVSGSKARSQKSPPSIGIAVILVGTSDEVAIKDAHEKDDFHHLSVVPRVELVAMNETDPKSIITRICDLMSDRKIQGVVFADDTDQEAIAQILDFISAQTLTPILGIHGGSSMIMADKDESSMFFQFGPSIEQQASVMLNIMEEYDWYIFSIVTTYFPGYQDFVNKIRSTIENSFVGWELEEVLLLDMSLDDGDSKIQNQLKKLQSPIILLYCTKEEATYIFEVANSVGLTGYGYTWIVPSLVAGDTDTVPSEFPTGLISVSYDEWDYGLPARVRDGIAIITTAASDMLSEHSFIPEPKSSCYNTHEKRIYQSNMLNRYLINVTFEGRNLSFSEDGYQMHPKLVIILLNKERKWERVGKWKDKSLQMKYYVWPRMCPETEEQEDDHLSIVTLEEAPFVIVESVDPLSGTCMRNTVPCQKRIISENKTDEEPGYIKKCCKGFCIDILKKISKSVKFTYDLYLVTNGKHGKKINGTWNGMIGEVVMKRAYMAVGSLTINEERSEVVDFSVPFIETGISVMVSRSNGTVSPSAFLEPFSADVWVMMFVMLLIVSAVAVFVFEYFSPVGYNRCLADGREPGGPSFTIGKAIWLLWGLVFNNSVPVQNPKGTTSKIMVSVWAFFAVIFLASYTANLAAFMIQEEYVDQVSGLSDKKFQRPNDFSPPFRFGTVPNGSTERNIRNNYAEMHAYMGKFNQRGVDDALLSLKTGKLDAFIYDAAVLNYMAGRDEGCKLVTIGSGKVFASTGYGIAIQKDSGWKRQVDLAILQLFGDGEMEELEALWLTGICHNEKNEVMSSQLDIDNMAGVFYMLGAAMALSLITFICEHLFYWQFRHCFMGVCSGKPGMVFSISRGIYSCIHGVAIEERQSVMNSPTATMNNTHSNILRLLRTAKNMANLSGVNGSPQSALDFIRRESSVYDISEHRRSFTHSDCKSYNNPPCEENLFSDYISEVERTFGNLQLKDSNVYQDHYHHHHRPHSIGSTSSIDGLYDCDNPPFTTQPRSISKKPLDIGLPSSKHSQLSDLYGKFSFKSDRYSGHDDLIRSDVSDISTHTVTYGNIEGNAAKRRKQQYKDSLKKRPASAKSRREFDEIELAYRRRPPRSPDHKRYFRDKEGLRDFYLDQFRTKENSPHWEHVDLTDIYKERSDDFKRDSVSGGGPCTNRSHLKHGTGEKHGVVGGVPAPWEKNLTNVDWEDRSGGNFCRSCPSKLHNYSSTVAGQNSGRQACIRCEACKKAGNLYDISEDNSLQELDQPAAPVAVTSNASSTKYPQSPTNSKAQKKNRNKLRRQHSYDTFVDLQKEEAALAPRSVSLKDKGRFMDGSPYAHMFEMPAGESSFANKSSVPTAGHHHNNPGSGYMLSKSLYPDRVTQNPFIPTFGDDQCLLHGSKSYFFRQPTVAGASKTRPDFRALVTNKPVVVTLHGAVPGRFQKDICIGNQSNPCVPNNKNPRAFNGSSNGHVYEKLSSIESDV

Row | Ki [nM] | SMILES
1 | 8.09 | NC(=NCc1ccccc1C(F)(F)F)c1ccc(OC(F)(F)F)cc1
2 | 2.09 | COc1ccccc1C/N=C(\N)c1ccc(OC(F)(F)F)cc1
3 | 4810 | NC(=NCC12CC3CC(CC(C3)C1)C2)c1ccc(OC(F)(F)F)cc1
4 | 150 | N=C(NCC12C3C4C5C3C1C5C42)c1ccc(OC(F)(F)F)cc1 (stereo not drawn)
5 | 3.58 | NC(=NCc1cc(F)cc(F)c1)c1ccc(OC(F)(F)F)cc1
6 | 8.25 | N=C(NCc1ccc(F)c(F)c1)c1ccc(OC(F)(F)F)cc1
7 | 2.86 | N=C(NCc1cccc(F)c1)c1ccc(OC(F)(F)F)cc1
8 | 26.3 | N=C(NCc1ccc2c(c1)OCO2)c1ccc(OC(F)(F)F)cc1
9 | 303 | COc1cccc(CNC(=N)c2ccc(OC(F)(F)F)cc2)c1OC
10 | 16.2 | COc1ccc(CNC(=N)c2ccc(OC(F)(F)F)cc2)c(OC)c1
11 | 4.29 | COc1ccc(OC)c(CNC(=N)c2ccc(OC(F)(F)F)cc2)c1
12 | 22.9 | COc1cc(CNC(=N)c2ccc(OC(F)(F)F)cc2)cc(OC)c1
13 | 1140 | COc1cc(CN=C(N)c2ccc(OC(F)(F)F)cc2)cc(OC)c1OC
